Literature values in US8450379B2, “Methods for treating migraine” (Corcept Therapeutics, Inc., priority 2002, dated 2013).

Tests used:
[1] = target: T1, Mineralocorticoid receptors (MRs) (Homo sapiens, UniProt P08235); conditions: MR versus GR
T1 sequence (P08235 1-984): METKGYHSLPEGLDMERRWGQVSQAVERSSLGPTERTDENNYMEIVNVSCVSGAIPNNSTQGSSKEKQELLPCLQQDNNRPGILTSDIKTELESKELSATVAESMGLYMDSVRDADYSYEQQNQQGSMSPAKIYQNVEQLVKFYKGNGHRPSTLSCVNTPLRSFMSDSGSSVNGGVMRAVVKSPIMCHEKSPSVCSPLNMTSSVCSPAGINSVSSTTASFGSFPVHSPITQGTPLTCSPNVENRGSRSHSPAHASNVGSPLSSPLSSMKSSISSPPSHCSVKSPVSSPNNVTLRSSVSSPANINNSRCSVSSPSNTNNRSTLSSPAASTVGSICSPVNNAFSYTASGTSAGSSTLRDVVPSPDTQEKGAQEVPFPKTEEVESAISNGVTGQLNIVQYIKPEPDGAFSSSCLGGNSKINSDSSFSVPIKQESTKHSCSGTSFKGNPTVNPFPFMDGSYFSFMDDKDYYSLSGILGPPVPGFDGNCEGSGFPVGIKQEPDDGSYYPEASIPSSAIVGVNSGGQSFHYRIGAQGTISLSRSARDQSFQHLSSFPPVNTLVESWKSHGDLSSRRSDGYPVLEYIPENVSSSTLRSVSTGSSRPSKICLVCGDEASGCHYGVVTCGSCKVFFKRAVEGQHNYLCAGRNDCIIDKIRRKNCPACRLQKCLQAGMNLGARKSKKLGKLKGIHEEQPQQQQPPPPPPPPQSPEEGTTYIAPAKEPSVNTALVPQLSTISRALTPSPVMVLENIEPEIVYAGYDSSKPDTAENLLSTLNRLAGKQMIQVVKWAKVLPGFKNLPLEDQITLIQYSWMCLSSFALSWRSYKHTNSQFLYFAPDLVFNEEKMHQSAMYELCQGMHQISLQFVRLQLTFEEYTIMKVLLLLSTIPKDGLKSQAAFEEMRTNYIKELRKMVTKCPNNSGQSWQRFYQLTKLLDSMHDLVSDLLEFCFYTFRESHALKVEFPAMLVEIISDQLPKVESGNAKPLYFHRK

[2] = target: T2, glucocorticoid (GR) receptors (Homo sapiens, UniProt P04150)
T2 sequence (P04150 1-777): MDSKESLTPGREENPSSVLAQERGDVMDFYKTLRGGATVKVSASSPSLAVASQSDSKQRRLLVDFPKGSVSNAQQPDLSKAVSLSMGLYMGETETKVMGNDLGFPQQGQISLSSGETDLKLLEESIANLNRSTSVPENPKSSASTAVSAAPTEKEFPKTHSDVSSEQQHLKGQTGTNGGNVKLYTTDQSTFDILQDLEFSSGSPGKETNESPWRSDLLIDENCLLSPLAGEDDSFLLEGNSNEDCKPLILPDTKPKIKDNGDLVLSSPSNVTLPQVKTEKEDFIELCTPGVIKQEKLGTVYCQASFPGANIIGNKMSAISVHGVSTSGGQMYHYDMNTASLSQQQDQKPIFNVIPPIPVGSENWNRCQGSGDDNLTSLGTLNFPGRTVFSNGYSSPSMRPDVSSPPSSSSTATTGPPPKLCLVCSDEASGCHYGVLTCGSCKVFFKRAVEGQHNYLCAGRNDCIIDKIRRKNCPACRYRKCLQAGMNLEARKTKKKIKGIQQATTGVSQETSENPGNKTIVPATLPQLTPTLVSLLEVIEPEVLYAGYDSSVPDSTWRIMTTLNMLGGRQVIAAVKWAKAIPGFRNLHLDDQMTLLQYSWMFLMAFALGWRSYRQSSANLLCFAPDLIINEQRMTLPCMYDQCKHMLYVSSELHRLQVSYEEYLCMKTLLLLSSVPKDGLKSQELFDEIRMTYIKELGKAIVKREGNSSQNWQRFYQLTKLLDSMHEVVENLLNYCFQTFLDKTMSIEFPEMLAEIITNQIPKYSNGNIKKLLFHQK

[3] = one study (Kawai)
progesterone receptors = target: T3, progesterone receptors (Homo sapiens, UniProt P06401)
T3 sequence (P06401 1-933): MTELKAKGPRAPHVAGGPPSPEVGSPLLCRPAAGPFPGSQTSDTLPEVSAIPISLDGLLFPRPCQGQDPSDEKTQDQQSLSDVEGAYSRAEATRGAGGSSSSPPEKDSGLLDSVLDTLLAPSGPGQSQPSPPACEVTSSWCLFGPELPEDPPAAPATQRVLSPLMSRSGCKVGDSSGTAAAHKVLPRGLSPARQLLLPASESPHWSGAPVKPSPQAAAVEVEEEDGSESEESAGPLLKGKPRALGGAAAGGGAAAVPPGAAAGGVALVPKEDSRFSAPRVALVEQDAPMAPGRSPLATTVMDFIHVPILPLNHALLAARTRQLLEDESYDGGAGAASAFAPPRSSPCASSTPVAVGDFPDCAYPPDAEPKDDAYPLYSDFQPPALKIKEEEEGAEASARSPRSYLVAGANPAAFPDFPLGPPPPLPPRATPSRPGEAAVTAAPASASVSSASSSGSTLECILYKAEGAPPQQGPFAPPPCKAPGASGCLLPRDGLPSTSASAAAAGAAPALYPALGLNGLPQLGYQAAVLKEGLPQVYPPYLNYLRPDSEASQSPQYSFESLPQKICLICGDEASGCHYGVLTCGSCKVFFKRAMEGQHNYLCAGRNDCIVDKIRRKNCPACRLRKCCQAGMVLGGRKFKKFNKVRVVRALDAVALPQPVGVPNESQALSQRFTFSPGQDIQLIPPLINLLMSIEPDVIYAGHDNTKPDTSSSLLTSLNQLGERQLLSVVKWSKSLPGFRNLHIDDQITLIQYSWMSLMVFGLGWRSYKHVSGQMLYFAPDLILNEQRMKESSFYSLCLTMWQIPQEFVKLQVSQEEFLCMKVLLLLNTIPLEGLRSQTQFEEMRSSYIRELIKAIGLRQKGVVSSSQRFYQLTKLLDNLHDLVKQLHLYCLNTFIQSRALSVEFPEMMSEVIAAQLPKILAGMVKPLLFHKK

| SMILES | affinity of MR for cortisol relative to GR binding of glucocorticoids [1] | antagonism of glucocorticoid (GR) receptor [2] | fraction of the daily dose excreted in the urine [3] | antagonism of progesterone receptor (progesterone receptors) |
| --- | --- | --- | --- | --- |
| C[C@]12CCC(=O)C=C1CC[C@@H]1[C@@H]2[C@@H](O)C[C@@]2(C)[C@H]1CC[C@]2(O)C(=O)CO [cortisol] | ten-fold higher affinity | – | – | – |
| CC#C[C@]1(O)CC[C@H]2[C@@H]3CCC4=CC(=O)CCC4=C3[C@@H](c3ccc(N(C)C)cc3)C[C@@]21C [Mifepristone, (11β,17β) 11[4 (dimethylamino)phenyl]-17 hydroxy-17 (1 propynyl)estra-4,9 dien-3 one] | – | powerful antagonist | less than 0.5 % of the daily dose | powerful antagonist |
| CC#C[C@]1(O)CC[C@H]2[C@@H]3CCC4=CC(=O)CCC4=C3[C@@H](c3ccc(OCCN(C)C)cc3)C[C@@]21C [RU009, 11β-(4-dimethylaminoethoxyphenyl)-17α-propynyl-17β-hydroxy-4,9-estradien-3-one] | – | GR antagonist effects | – | – |
